Several values for one entry are separate records, joined by “and”; a condition that tells them apart may be missing. Equal entries are not always repeated.
Experiments:
Alpha2A = Alpha2A (Homo sapiens, UniProt P08913); assay: Off-target profiling panel; format: binding; details: read-out: Inhibition by MBE1 at 10 μM (%)
ADORA2A = ADORA2A (Homo sapiens, UniProt P29274); assay: Off-target profiling panel; format: binding; details: read-out: Inhibition by MBE1 at 10 μM (%)
H1 = H1 (Homo sapiens, UniProt P35367); assay: Off-target profiling panel; format: binding; details: read-out: Inhibition by MBE1 at 10 μM (%)
Sequence of H1 (P35367 whole entry): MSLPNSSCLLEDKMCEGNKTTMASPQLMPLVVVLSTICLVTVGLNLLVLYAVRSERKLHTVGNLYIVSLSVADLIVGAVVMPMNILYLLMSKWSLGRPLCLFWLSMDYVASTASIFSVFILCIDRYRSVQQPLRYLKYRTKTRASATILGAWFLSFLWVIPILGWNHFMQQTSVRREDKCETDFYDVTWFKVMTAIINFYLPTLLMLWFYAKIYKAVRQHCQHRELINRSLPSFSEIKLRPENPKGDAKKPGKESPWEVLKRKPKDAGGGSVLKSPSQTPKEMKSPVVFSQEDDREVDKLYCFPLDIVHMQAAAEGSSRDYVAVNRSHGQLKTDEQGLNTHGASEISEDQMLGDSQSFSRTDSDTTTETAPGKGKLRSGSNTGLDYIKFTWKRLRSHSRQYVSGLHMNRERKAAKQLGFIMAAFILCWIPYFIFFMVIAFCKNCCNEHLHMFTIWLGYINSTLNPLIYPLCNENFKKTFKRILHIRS

LCK = LCK (Homo sapiens, UniProt P06239); assay: Off-target profiling panel; format: biochemical; details: read-out: Inhibition by MBE1 at 10 μM (%)
Sequence of LCK (P06239 whole entry): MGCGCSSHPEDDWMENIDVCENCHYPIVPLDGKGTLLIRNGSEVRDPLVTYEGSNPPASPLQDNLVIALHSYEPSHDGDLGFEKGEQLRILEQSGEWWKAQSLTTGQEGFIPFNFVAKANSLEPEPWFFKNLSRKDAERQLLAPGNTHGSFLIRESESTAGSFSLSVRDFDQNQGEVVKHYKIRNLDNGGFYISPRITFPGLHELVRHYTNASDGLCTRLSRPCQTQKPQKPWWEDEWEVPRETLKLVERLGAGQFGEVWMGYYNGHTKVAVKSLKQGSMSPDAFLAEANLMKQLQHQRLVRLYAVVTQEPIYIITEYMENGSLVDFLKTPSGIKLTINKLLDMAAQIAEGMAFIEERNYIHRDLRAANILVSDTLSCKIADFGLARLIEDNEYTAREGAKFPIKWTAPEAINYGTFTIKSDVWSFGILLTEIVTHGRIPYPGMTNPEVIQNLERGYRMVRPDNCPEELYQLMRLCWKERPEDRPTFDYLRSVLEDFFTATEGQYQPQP

PDE4D2 = PDE4D2 (Homo sapiens, UniProt Q08499); assay: Off-target profiling panel; format: biochemical; details: read-out: Inhibition by MBE1 at 10 μM (%)
Sequence of PDE4D2 (Q08499 303-809 limits assumed): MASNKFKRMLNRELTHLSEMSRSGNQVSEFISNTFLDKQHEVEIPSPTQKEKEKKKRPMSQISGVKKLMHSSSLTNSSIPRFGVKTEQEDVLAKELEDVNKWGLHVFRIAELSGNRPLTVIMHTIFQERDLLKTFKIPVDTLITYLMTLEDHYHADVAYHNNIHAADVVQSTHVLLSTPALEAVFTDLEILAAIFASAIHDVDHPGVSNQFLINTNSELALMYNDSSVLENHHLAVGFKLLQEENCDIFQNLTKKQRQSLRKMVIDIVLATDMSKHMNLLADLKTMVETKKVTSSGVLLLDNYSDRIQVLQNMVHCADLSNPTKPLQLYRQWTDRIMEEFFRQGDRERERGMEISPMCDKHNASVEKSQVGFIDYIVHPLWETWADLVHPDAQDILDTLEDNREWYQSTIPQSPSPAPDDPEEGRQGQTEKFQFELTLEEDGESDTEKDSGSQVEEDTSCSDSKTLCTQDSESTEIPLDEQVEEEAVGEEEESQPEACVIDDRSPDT

V1A = V1A (Homo sapiens, UniProt P37288); assay: Off-target profiling panel; format: binding; details: read-out: Inhibition by MBE1 at 10 μM (%)
Sequence of V1A (P37288 whole entry): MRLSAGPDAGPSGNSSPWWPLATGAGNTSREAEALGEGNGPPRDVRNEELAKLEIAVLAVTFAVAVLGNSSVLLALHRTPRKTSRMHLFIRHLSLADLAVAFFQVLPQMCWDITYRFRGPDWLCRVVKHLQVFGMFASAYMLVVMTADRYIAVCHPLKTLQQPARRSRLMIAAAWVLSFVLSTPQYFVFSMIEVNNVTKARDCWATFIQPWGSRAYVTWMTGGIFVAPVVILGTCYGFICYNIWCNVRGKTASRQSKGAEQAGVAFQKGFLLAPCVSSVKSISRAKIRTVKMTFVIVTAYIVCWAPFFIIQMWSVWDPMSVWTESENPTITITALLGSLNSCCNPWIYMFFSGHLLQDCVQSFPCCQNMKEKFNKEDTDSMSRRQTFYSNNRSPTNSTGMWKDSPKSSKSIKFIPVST

LN229 cells = assay: Metabolomic profiling of treated cell lines (raw metabolite counts); format: cell-based, human; details: LN229:MBE, replicates
Text: Supplement mmc8.xlsx, sheet "Supplement Table 7" | column: LN229:MBE

M1 = M1 (Homo sapiens, UniProt P11229); assay: biochemical; format: binding; details: read-out: Inhibition by MBE1 at 10 μM (%)
Sequence of M1 (P11229 whole entry): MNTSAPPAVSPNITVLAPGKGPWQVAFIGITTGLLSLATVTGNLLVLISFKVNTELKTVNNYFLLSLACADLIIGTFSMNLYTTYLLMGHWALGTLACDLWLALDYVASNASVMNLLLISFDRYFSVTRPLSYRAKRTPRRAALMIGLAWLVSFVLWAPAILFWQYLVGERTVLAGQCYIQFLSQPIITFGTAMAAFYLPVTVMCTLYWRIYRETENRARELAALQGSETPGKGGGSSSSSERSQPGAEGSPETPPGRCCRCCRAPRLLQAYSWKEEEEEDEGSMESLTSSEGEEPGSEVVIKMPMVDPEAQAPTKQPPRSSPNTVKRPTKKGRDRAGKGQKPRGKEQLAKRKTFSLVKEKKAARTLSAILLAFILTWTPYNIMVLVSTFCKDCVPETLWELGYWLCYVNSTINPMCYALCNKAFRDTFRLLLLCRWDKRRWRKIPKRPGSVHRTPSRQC

PVRL1 = target: T1, PVRL1 (Homo sapiens, UniProt Q15223); assay: Thermal proteome profiling (TPP) in A375 cells; format: cell-based; details: PVRL1, 1 uM
T1 construct: Treated A375 cells were harvested from 10 × 15 cm plates; endogenous in cells; host or cells: A375 melanoma cells
T1 sequence (Q15223 31-517): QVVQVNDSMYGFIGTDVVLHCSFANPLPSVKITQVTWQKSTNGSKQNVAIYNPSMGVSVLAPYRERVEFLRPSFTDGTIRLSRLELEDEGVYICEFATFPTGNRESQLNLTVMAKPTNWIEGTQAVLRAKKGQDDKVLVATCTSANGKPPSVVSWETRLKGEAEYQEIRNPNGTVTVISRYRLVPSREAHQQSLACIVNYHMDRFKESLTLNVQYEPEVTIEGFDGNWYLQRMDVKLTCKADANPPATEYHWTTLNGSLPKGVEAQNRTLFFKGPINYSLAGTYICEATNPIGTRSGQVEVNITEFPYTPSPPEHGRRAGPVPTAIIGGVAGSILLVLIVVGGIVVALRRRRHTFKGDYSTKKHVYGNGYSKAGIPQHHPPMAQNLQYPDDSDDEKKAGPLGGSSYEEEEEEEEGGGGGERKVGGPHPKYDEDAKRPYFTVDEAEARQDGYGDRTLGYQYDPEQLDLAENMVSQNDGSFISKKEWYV

[1] = 7-day repeat-dose study, oral gavage; format: in vivo, mouse; details: 50 mg/kg twice daily oral gavage
Method: In order to accommodate in vivo dosing and to also determine any potential toxic effects of MBE1.5, we performed a 7-day repeat-dose study administering a suspension of MBE1.5 at 50 mg/kg twice daily via oral gavage.
Finally, to establish a pharmacokinetic profile throughout dosing, MBE1.5 was analyzed in serum 12 h post dose on day 1 and day 7. […] To accommodate consistent plasma concentrations without accumulation, MBE1.5 was formulated to a lower concentration in mouse diet that would administer a dose equivalent to 25 mg/kg daily. This formulated diet was provided to mice for 5 days, at which point serum was analyzed for MBE1.5 concentration at 6:30 a.m. and 4:00 p.m. on day 5 to capture differences in mouse feeding cycles.
Figure S5. Specificity, tolerability and pharmacokinetic analysis of MBE1.5 in […]
MCF7 or SUM159 cells and a dose titration of MBE1.5 was performed against each cell line in the Aldelfuor assay to confirm ALDH1A3 isoform specificity for MBE1.5. n= 3 […]
proteome profiling in A375 cells was performed in DMSO and at two concentrations of MBE1 using a 10 temperature melting curve for isolation, followed by proteomic analysis, filtering and mapping peptide frequency as a composite melting curve, n=3 biological replicates per condition-temperature. […] ALDH1A3 or NPTN were assessed by WB to confirm the stabilization of ALDH1A3 but not NPTN (55kD, as indicated by arrow) by MBE1. […]
analysis of MBE1.5 following identification of proper formulations and administration to fasted male CD1 mice at 1 mg/kg intravenous (IV) and 10 mg/kg oral gavage (PO). n = 3 mice per arm. G-I, MBE1.5 administered as a suspension to C57BL/6 male mice via bi-daily PO administration for seven days as compared to the vehicle was tracked for body weight (G), complete blood count at day 7 (H) and plasma concentrations of MBE1.5 were analyzed at 12 hours post Day 1 dosing and 12 hours following the last dose (I). n = 4 male mice per arm. […] Upon acclimation, serum MBE1.5 concentrations were calculated following blood draws at 6:30 am and 4 pm. n = 5 mice per arm. […]

[2] = test system: panel of 23 human cancer cell lines; assay: Aldefluor assay, panel of 23 human cancer cell lines; format: cell-based; details: 100 nM; most solid cancer types except liver cancer
Method: To determine the breadth of ALDH1A3 activity across human cancers and assess the target engagement of these discovered compounds across tumor models, we profiled a panel of 23 human cancer cell lines with the Aldefluor assay. […] Next, we assessed whether ALDH1A3 affects cell growth across this broad panel of cancer types by testing proliferation for each cell line with and without MBE1.5.
In addition, cells were suspended at a concentration of 100,000 cells per mL. Finally, DMSO was added to at 1% final in all cells to improve kinetics of the assay. For compound titrations, concentrated compound stock was added first to tubes and a uniform Aldefluor buffer containing the cell suspension was added to dilute to final volumes. Cells were analyzed by a BD LSRII for flow cytometry and were sorted using a FACSAria Fusion cell sorter (BD Biosciences) equipped with a 70 micron nozzle. Sample and sort collection tubes were kept at 4°C. […] DAPI was used as a live-dead indicator.

[3] = test system: panel of cancer cell lines; assay: 48 h proliferation, WST-8 tetrazolium dye assay; format: cell-based, human; details: 48-h proliferation assays, 23 cell lines

Sequence of ADORA2A (P29274 whole entry): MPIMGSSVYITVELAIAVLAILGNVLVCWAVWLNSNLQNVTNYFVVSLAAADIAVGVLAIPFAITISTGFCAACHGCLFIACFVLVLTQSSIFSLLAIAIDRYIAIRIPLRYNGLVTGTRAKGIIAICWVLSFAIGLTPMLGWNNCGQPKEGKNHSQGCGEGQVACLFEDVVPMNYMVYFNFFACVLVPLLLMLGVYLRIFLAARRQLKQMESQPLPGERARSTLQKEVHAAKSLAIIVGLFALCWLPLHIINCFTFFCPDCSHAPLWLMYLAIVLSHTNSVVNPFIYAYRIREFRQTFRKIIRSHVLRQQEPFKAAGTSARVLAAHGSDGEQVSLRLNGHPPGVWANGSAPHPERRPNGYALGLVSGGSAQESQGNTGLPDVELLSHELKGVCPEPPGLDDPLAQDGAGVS
Sequence of Alpha2A (P08913 whole entry): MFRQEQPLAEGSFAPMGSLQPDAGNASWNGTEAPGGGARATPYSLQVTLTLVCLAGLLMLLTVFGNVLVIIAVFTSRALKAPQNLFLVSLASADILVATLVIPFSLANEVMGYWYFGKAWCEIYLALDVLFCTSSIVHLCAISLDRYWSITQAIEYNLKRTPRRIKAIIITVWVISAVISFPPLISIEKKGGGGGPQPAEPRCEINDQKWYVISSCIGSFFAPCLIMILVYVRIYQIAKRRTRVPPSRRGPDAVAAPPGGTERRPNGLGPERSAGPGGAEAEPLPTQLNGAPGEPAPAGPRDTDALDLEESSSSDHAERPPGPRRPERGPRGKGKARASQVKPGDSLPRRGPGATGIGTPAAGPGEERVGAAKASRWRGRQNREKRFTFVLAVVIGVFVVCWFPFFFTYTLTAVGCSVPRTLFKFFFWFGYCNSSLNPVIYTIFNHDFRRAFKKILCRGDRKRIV

Molecule `CCc1cnccc1C(=O)Nc1cc2c(cc1F)NC(=O)CC2` [MBE1, 3-ethyl-N-(7-fluoro-2-oxo-3,4-dihydro-1H-quinolin-6-yl)pyridine-4-carboxamide] has an inhibition at 10 µM (Alpha2A) of -1.15%, an inhibition at 10 µM (ADORA2A) of -15.7% and an inhibition at 10 µM (H1) of -11.7%. For the same molecule, the inhibition at 10 µM (LCK) was -2.81%, the inhibition at 10 µM (PDE4D2) was 11.8% and the inhibition at 10 µM (V1A) was 5.88%. The “Raw counts of 2-Hydroxybutyric acid” value (LN229 cells) was 261573 and 302862 and 279756, the “Raw counts of 3-Hydroxybutyric acid” value (LN229 cells) was 1309454 and 1164963 and 1206122 and the “Raw counts of 3-Phosphoglycerate” value (LN229 cells) was 11596.7 and 6745.18 and 3724.31. The “Raw counts of 3-Phosphoserine” value (LN229 cells) was 6232.78 and 2797.63 and 5215.65, the “Raw counts of 6-Phosphogluconate” value (LN229 cells) was 5157.27 and 5734.83 and 2668.31 and the “Raw counts of Carbamoyl phosphate” value (LN229 cells) was 45195.2 and 38665.3 and 41961.6. For the same molecule, the “Raw counts of Citrulline” value (LN229 cells) was 498544 and 479590 and 504161, the “Raw counts of Cytidine” value (LN229 cells) was 67589.2 and 84265.7 and 71881.1 and the “Raw counts of Hypoxanthine” value (LN229 cells) was 1333474 and 1740688 and 1516660. For the same molecule, the “Raw counts of Isoleucine” value (LN229 cells) was 1.29E+08 and 1.33E+08 and 1.18E+08, the “Raw counts of Lactate” value (LN229 cells) was 3.62E+08 and 3.37E+08 and 3.31E+08 and the “Raw counts of Leucine” value (LN229 cells) was 1.02E+08 and 1.11E+08 and 1.01E+08. The “Raw counts of Methionine” value (LN229 cells) was 1.89E+07 and 2.12E+07 and 1.99E+07, the “Raw counts of N-acetyl-glutamine” value (LN229 cells) was 31448.3 and 20555.9 and 36320.3 and the “Raw counts of Orotate” value (LN229 cells) was 0. For the same molecule, the “Raw counts of Phenylalanine” value (LN229 cells) was 7.59E+07 and 8.45E+07 and 7.68E+07, the “Raw counts of Phosphoenolpyruvate” value (LN229 cells) was 0 and 2071.2 and 2356.81 and the “Raw counts of Pyridoxine” value (LN229 cells) was 4.91E+07 and 5.30E+07 and 4.89E+07. The “Raw counts of Pyruvate” value (LN229 cells) was 2231037 and 2192759 and 1890595, the “Raw counts of Ribitol” value (LN229 cells) was 1641581 and 2032681 and 3007411 and the “Raw counts of Sorbitol” value (LN229 cells) was 2.02E+07 and 2.14E+07 and 2.12E+07. For the same molecule, the “Raw counts of Taurine” value (LN229 cells) was 1.22E+07 and 1.24E+07 and 1.15E+07, the “Raw counts of Tryptophan” value (LN229 cells) was 1.21E+07 and 1.27E+07 and 1.15E+07 and the “Raw counts of Tyrosine” value (LN229 cells) was 4.34E+07 and 4.46E+07 and 4.65E+07. The “Raw counts of UDP” value (LN229 cells) was 108325 and 86766.9 and 84670.8, the “Raw counts of Uracil” value (LN229 cells) was 1116835 and 1114912 and 1017401 and the “Raw counts of Uridine” value (LN229 cells) was 932418 and 1052824 and 956012. The “Raw counts of Valine” value (LN229 cells) was 6.74E+07 and 7.26E+07 and 6.71E+07, the “Raw counts of Xanthine” value (LN229 cells) was 9846835 and 1.10E+07 and 1.04E+07 and the inhibition at 10 µM (M1) was -7.68%. For the same molecule, the ΔTm at 1 µM (PVRL1; A-375, read-out: DMSO-1uM MBE1 TM shift) was -15.1 °C and the “1uM MBE1 Tm” value (PVRL1) was 64.

For `CCc1ccccc1C(=O)Nc1cc2c(cc1F)NC(=O)CC2` [MBE1.5, 2-ethyl-N-(7-fluoro-2-oxo-3,4-dihydro-1H-quinolin-6-yl)benzamide], the “serum level 12 h post dose, day 1 vs day 7 (in words)” value [1] was “accumulated”, the “body weight vs vehicle (in words)” value ([1]; 7 days, C57BL/6 male mice) was “no difference” and the “blood profile (complete blood count) vs vehicle (in words)” value ([1]; day 7) was “no detectable difference”. For the same molecule, the “inhibition of Aldefluor activity across cancer cell line panel (in words)” value [2] was “potently inhibited Aldefluor activity” and the “effect on growth or survival (in words)” value [3] was “no detectable effect”.

— article PMC12595434, “Development of retinoid nuclear receptor pathway antagonists through targeting aldehyde dehydrogenase 1A3” (iScience, 2025)
